Laboratory results taken from patent US12336977B2, “Nitenin analogue compounds and their use in the treatment of chronic and acute pain” (SEA4US-BIOTECNOLOGIA E RECURSOS MARINHOS, LDA., priority 2019, dated 2025).
“Also recorded” adds a separate entry of the source.

Experiments:
CIPN rats (paclitaxel) = experiment: chemotherapy-induced peripheral neuropathy rat model CIPN, von Frey filaments; type: in vivo; conditions: I.V.; 42 days after paclitaxel
Protocol: […]
(§1) For efficacy studies, nociception was assessed in all animals from all pain models by regular behavioural monitoring, by quantifying the sensitivity to mechanical stimuli with Von Frey filaments, and consequently reflecting hyperalgesia when hypersensitive. […] Intraperitoneal administration was tested in CFA rats (23 days after CFA injection), with 10 times the nitenin quantity administered by I.V. injections. […] Oral administration of nitenin through stomach gavages (endogastric), with 100 times the quantity administered by I.V. injections, was tested in CCI rats (31 days after surgery). […]

[1] = test system: CCI rats (chronic constriction of the sciatic nerve of Wistar rats); experiment: neuropathic pain rat model CCI, von Frey filaments; type: in vivo
Source text: FIG. 4 illustrates behavioral readouts as measures of pain during treatment with nitenin on a Neuropatic pain rat model CCI (Chronic constriction injury). Typical experiment using a group of Wistar rats subjected to four unilateral sciatic nerve constrictions. Values refer to the mechanical sensitivity to stimulation using calibrated von Frey Filaments, and consequently reflecting hyperalgesia when hypersensitive (black filled markers—ipsilateral, operated leg; Open markers—contralateral, uninjured leg). Dotted line refers to the average value of the ipsilateral paw prior to surgery. a) Induction of the model showing that 3 days after operation, the mechanical sensitivity of the ipsilateral limb increases markedly, whereas the one associated with the contralateral leg remained unchanged, similar to baseline values. This tendency is maintained during 26 days after surgery, day that treatment with nitenin was performed (circle with dotted line). b) Effect of intravenous injection of nitenin (estimated plasma concentration of 1 μg/ml) on the mechanical sensitivity of the ipsilateral leg. For clarity, the data of the contralateral limb is not shown but it remains unaltered. […]
For efficacy studies, nociception was assessed in all animals from all pain models by regular behavioural monitoring, by quantifying the sensitivity to mechanical stimuli with Von Frey filaments, and consequently reflecting hyperalgesia when hypersensitive. […] Intraperitoneal administration was tested in CFA rats (23 days after CFA injection), with 10 times the nitenin quantity administered by I.V. injections. […]

hKv1.1 = target: T1, hKv1.1 (Homo sapiens, UniProt Q09470); experiment: voltage-clamp of K+ currents in CHO-K1 cells expressing hKv1.1; type: cell-based
T1 construct: expressed in transfected cells; host or cells: CHO-K1
Source text: (§2) As measure of Ifast, peak current was used, whereas, as a measure of Islow, the current value was obtained at the end of the command pulse (see FIG. 1). Values are expressed as mean±S.E.M. For Islow, a dual phase relationship can be observed. […] Kv1.3 channel is the most sensitive channel (around 6-fold more sensitive in comparison to the “next most sensitive one”, the Kv1.2) Kv1.2, Kv1.1 and Kv1.6 show similar, intermediate sensitivities to nitenin. In opposition, Kv1.4 is the less sensitive (˜31 times less sensitive).
(§3) Additionally, drug sensitivity to different voltage-activated channels was assessed by studying the drug effect on currents recorded from chinese hamster ovary (CHO) cells stably transfected with different human Kv channel subunits (Kv1.1, Kv1.2, Kv1.3, Kv1.4 and Kv1.6).
(§4) The higher sensitivity of nitenin to Islow (rather than Ifast) and the nature of the nitenin sensitive current (see nitenin sensitive current in FIG. 1.b) urged to understand which K^+ channel(s) do underline Islow. By considering which Kv channel subunits are known to be expressed in DRG, and the biophysical nature of the nitenin-sensitive current, nitenin was tested on whole-cell currents recorded from CHO cells expressing hKv1.1, hKv1.2, hKv1.3, hKv1.4 and hKv1.6. […] Current inhibition was measured at the end of the 1000 ms pulse.

[2] = test system: CFA rats (knee administrations of Complete Freund's Adjuvant on Wistar rats); experiment: inflammatory pain rat model CFA, von Frey filaments; type: in vivo
Protocol: […]
as §1

hKv1.6 = target: T2, hKv1.6 (Homo sapiens, UniProt P17658); experiment: voltage-clamp of K+ currents in CHO-K1 cells expressing hKv1.6; type: cell-based
T2 construct: expressed in transfected cells; host or cells: CHO-K1
Source text: as §2, §3, §4

T1 sequence (Q09470 whole entry): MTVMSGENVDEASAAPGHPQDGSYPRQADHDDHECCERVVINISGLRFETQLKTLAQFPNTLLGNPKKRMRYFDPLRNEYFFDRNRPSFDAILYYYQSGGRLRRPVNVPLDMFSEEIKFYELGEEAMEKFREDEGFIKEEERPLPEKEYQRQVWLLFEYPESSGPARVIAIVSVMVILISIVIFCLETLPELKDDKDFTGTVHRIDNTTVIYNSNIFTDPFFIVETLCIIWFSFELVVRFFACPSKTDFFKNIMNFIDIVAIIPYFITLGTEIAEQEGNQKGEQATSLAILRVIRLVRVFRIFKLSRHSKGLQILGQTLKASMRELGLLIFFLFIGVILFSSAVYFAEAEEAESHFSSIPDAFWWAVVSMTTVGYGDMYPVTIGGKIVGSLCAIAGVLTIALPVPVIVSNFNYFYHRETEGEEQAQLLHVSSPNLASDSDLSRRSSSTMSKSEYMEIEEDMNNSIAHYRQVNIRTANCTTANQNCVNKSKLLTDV
T2 sequence (P17658 whole entry): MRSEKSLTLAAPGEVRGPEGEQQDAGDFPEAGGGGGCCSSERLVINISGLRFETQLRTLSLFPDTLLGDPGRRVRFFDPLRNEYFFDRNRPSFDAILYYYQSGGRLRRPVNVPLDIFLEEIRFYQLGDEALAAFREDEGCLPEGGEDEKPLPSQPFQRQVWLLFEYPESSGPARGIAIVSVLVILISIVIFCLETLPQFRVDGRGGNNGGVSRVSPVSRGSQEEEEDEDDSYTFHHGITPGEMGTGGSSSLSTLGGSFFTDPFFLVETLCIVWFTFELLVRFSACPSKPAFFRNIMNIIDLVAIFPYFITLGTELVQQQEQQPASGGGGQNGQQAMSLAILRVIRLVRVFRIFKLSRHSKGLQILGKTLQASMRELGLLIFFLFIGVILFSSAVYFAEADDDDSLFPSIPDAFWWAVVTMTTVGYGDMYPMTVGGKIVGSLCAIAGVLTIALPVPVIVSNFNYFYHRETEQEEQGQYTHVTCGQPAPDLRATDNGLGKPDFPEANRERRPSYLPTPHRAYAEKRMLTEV

**Q.** Which “sensitivity to mechanical stimuli, both paws” value (CIPN rats (paclitaxel)) does the source give for `C/C(=C\C1C/C(=C/CCc2ccoc2)C(=O)O1)CCCc1ccoc1` (centres unmarked) [nitenin] here?
**A.** Its value is “intense decrease of sensitivity to mechanical stimuli”.

**Q.** What about the “behavioural scores of the contralateral (uninjured) paw” value ([1]; I.V. 1 μg/mL of blood) of the same compound?
**A.** The value was “no changes”.

**Q.** What about the “mechanical sensitivity of ipsilateral paw (von Frey)” value ([1]; I.V. 1 μg/mL of blood ~0.06 mg/Kg, acute (3 days) and chronic (22 to 31 days)) of the same compound?
**A.** Its value is “reaching values not different to those obtained during baseline; also recorded: noticeable decrease of sensitivity to mechanical stimuli”.

**Q.** What about the “time of maximum effect after injection” value ([1]; intravenous, estimated plasma concentration 1 μg/ml, 26 days after surgery) of the same compound?
**A.** Its value is about 1 h.

**Q.** What about the “lower sensitivity of hKv1.1 relative to Kv1.3” value (hKv1.1) of the same compound?
**A.** Its value is about 6 ×.

**Q.** And the “sensitivity to mechanical stimuli (von Frey)” value ([2]; I.V. 1 μg/mL of blood, 3, 18 and 23 days after CFA)?
**A.** The value was “noticeable decrease of sensitivity to mechanical stimuli”.

**Q.** What about the “mitigation effect of pain (score values)” value ([2]; intraperitoneal, 10 times the I.V. quantity, 23 days after CFA injection) of the same compound?
**A.** Its value is “clear mitigation effect of pain with score values reaching control levels”.

**Q.** And the “lower sensitivity of hKv1.6 relative to Kv1.3” value (hKv1.6)?
**A.** Its value is about 6 ×.
